These results are taken from patent publication EP4588470A1, “PHARMACEUTICAL COMPOSITION COMPRISING CURCUMIN AND THE PREPARATION THEREOF” (priority 2024, dated 2025).

Series [1] concerns human circulating tumor cells. Kind of series: drug sensitivity testing (CTC assay) on circulating tumor cells cultivated from patient blood. Format: cell-based. An excerpt: Determination of the effect of a pharmaceutical composition according to the present invention, on human circulating tumor cells in blood of nine patients suffering from different types of carcinoma as given in the following Table IV. The composition of the pharmaceutical composition is the same as used in Example 4.
The cells from the collected blood were cultivated in a usual manner with an agent. The agent was either the pharmaceutical composition according to the present invention, or Resveratrol-ACTIF®, which is a combination preparation comprising resveratrol and at least one gingerol, that were added to the cell culture in a concentration of either 50% 100% and 200%.
The same EDTA blood sample used for the verification of the CTC burden was used for drug sensitivity testing.
After enrichment of mononuclear cells by density gradient centrifugation, CD45 depletion and erythrolysis the remaining cells were suspended in cell culture medium and incubated for 4 days with and without the tested compounds. Compounds were tested at three tissue culture doses (TCD), namely 50%, 100% and 200%.. […]
The same experiment was performed with human circulating tumor cells, prepared from a tumor patient by using Resveratrol-ACTIF® and the pharmaceutical composition according to the present invention. […] The results vary from patient to patient and therefore have to be determined individually. […]

For series [2] the following is noted: in buffer at pH 7; cited from earlier work.
For series [3] the following is noted: several animal studies; cited from earlier work.

For `N.N.O=C([O-])C1(C(=O)[O-])CCC1.[Pt+2]` [Carboplatin], the “response of tumor cell-inhibition” value in series [1] (patient 7, Figure 8, already with the 50% TCD (7,9 µg/ml)) was “maximal response has been reached”.
As for `CCC(=O)C(CC(C)N(C)C)(c1ccccc1)c1ccccc1` (stereo not shown) [Methadon], in series [1], the “antitumoral capacity among the tested chemotherapeutics” value is given as “highest antitumoral capacity”.
Turning to `COc1cc(C=CC(=O)CC(=O)C=Cc2ccc(O)c(OC)c2)ccc1O` [curcumin, 1,7-bis(4-hydroxy-3-methoxyphenyl)-1,6-heptadiene-3,5-dione], in series [2], the “solubility in aqueous solution” value was “less than 0.03 M”. The “oral curcumin excreted in the faeces” value in series [3] is given as 90%.
